These are literature values, as cited in US20160354348A1, “METHODS FOR PROPHYLATIC APPETITE SUPPRESSION” (Orexigen Therapeutics, Inc., priority 2005, published 2016).

Read-outs that look alike come from different tables or passages of the source.

For data set [1] the following is noted: Colosimo & De Michele 1999.
For data set [2] the following is noted: 20-25° C.

For the compound `N[C@@H](Cc1ccc(O)c(O)c1)C(=O)O` [levodopa], the “Elimination half-life (T1/2)” value in data set [1] was “about 1.5 hours”.
`NS(=O)(=O)Cc1noc2ccccc12` [zonisamide, 1,2-benzisoxazole-3-methanesulfonamide]: the “Half-life (t1/2) in plasma” value is given as “about 63 hours”. Further, the t1/2 in erythrocytes entry (erythrocytes) was “about 105 hours”. Under “in vivo”, the Protein bound was 40%. Further, the “Half-life (t1/2) in plasma” value (listed as Zonisamide) was 63 to 69 h. For the same compound, the “Solubility in aqueous acid” value in data set [2] is given as “about 200 mg/ml”.
